Molecules are shown by their SMILES. pIC50: −log10 of the molar value.

The test concerns the target T1, IL-17A/A (Homo sapiens, UniProt Q16552).
T1 construct: purchased Genscript Z03228
T1 sequence (Q16552 24-155): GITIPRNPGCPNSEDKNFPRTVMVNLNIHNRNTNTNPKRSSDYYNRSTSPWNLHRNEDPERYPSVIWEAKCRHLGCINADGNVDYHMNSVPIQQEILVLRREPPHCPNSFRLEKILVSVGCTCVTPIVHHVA
Kind of test: IL-17A/A HEK-Blue Cell Assay. The conditions noted are these: IL-17A/A inhibition, HEK-Blue IL-17A reporter cell line, SEAP readout at A630, incubated for 20 hours. The test is classed as cell-based. The procedure: Example 3: IL-17A/A HEK-Blue Cell Assay
The HEK-Blue IL-17A reporter cell line (Fisher #NC1408637) was used for cell-based IL-17A/A inhibition assays. Cells were grown and prepared for assays according to the manufacturer's instructions. This cell line consists of HEK 293 cells that were designed to expressed IL-17RA, IL-17RC, and the ActI adapter molecule, the combination of which, when stimulated by IL-17A/A activates a NFκB promoter and drives expression of a recombinant Secreted Alkaline Phosphatase (SEAP) gene protein. Media from the cells is then added to a development reagent (Quanti-Blue Substrate, Fisher #NC9711613), and read at A630.
Compounds were titrated in DMSO, with a top final compound concentration of 10 μM, 1 uM, or 0.3 μM, and added to the cells immediately before adding IL-17A/A (Genscript #Z03228). The cells, compound, and IL-17A/A were then incubated for 20 hours before media was removed for SEAP analysis. The resulting inhibition curve was then analyzed using Graphpad Prism 7.0, and IC50 values were determined using a 4-parameter nonlinear fit. DMSO was added to a universal final concentration of 0.1% to optimize background.
For orientation: pIC50 means the IC50 on a negative log10 scale, so that one unit is a factor of ten. With `CCn1nccc1C(=O)N[C@H](c1nc2c(F)c(CC3CCNC3=O)ccc2[nH]1)C(C1CC1)C1CC1` (mixture of isomers) [Compound 2, N-((1S)-2,2-dicyclopropyl-1-(7-fluoro-6-((2-oxopyrrolidin-3-yl)methyl)-1H-benzo[d]imidazol-2-yl)ethyl)-1-ethyl-1H-pyrazole-5-carboxamide], the pIC50 is 6.00 to 7.00.
Take `CCn1nccc1C(=O)NC(c1nc2nc(CC3CCNC3=O)ccc2[nH]1)C1CCC(F)(F)CC1` (mixture of isomers) [Compound 9]: the pIC50 was less than 6.00.
On to `CCn1nccc1C(=O)N[C@H](c1nc2c(F)c(C[C@H]3CCNC3=O)ccc2[nH]1)C(C1CC1)C1CC1` (single isomer, unassigned) [Compound 1], for which the negative logarithm of the IC50 (pIC50) was 6.00 to 7.00.
For `CCn1nccc1C(=O)N[C@H](c1nc2cc(C[C@H]3C[C@@H](C(F)(F)F)NC3=O)ccc2[nH]1)C(C1CC1)C1CC1` (single isomer, unassigned) [Compound 3] the value was more than 7.00; for `CCn1nccc1C(=O)N[C@H](c1nc2cc(C[C@@H]3C[C@@H](C(F)(F)F)NC3=O)ccc2[nH]1)C(C1CC1)C1CC1` (single isomer, unassigned) [Compound 4], 6.00 to 7.00; for `CCn1nccc1C(=O)N[C@H](c1nc2cc(C[C@@H]3C[C@H](C(F)(F)F)NC3=O)ccc2[nH]1)C(C1CC1)C1CC1` (single isomer, unassigned) [Compound 5], less than 6.00.
Next, `CCn1nccc1C(=O)N[C@H](c1nc2c(F)c(CC3CCC(C(F)(F)F)NC3=O)ccc2[nH]1)C(C1CC1)C1CC1` (single isomer, unassigned) [Compound 47]: 6.00 to 7.00; `CCn1nccc1C(=O)N[C@H](c1nc2c(F)c(CC3CCC(C(F)(F)F)NC3=O)ccc2[nH]1)C(C1CC1)C1CC1` (single isomer, unassigned) [Compound 48]: less than 6.00.
Consider `CCn1nccc1C(=O)N[C@H](c1nc2c(F)c(CC3CCC(C(F)(F)F)NC3=O)ccc2[nH]1)C(C1CC1)C1CC1` (single isomer, unassigned) [Compound 49], for which the pIC50 was less than 6.00.
Take `CCn1nccc1C(=O)N[C@H](c1nc2c(F)c(CC3CCC(C(F)(F)F)NC3=O)ccc2[nH]1)C(C1CC1)C1CC1` (single isomer, unassigned) [Compound 50]: the pIC50 is more than 7.00.
In the case of `CCn1nccc1C(=O)N[C@H](c1nc2c(F)c(CC3CCC(C(F)(F)F)NC3=O)ccc2[nH]1)C(C1CC1)C1CC1` (single isomer, unassigned) [Compound 51], the pIC50 was 6.00 to 7.00.
As to `CCn1nccc1C(=O)N[C@H](c1nc2cc(C[C@H]3CCNC3=O)ccc2[nH]1)C1CCCCCC1` [Compound 6], the pIC50 was more than 7.00.
On to `CCn1nccc1C(=O)N[C@H](c1nc2cc(C[C@H]3CCNC3=O)ccc2[nH]1)C1CCC(F)(F)CC1` [Compound 7], for which the negative-log IC50 (pIC50) is 6.00 to 7.00.
On to `CCn1nccc1C(=O)N[C@H](c1nc2cc(C[C@@H]3CCNC3=O)ccc2[nH]1)C1CCC(F)(F)CC1` [Compound 8], for which the pIC50 is less than 6.00.
As for `CCn1nccc1C(=O)N[C@H](c1nc2nc(C[C@H]3CCNC3=O)ccc2[nH]1)C1CCC(F)(F)CC1` [Compound 10], the pIC50 was less than 6.00.
For `CCn1nccc1C(=O)N[C@H](c1nc2c(F)c(CC3CCNC3=O)ccc2[nH]1)C1CCC(F)(F)CC1` (stereo partly drawn) [Compound 11] the value was 6.00 to 7.00; for `CCn1nccc1C(=O)N[C@H](c1nc2c(F)c(C[C@@H]3CCNC3=O)ccc2[nH]1)C1CCC(F)(F)CC1` [Compound 12], less than 6.00; for `CCn1nccc1C(=O)N[C@H](c1nc2cc(C[C@H]3CCNC3=O)cc(F)c2[nH]1)C1CCC(F)(F)CC1` [Compound 13], 6.00 to 7.00.
Next, `CCn1nccc1C(=O)N[C@H](c1nc2cc(C[C@@H]3CCNC3=O)cc(F)c2[nH]1)C1CCC(F)(F)CC1` [Compound 14]: less than 6.00; `CCn1nccc1C(=O)N[C@H](c1nc2cc(CC3CCNC3=O)ccc2[nH]1)C(C1CC1)C1CC1` (stereo partly drawn) [Compound 15]: 6.00 to 7.00.
Turning to `CCn1nccc1C(=O)N[C@H](c1nc2cc(C[C@H]3CCNC3=O)ccc2[nH]1)C(C1CC1)C1CC1` [Compound 16], the negative-log IC50 (pIC50) is 6.00 to 7.00.
Take `CCn1nccc1C(=O)N[C@H](c1nc2ccc(CC3CCCNC3=O)cc2[nH]1)C(C1CC1)C1CC1` (stereo partly drawn) [Compound 17]: the negative logarithm of the IC50 (pIC50) was 6.00 to 7.00.
For `CCn1nccc1C(=O)N[C@H](c1nc2ccc(C[C@@H]3CCCNC3=O)cc2[nH]1)C(C1CC1)C1CC1` [Compound 18] the value was less than 6.00.
For `CCn1nccc1C(=O)N[C@H](c1nc2ccc(CC3(C)CCNC3=O)cc2[nH]1)C(C1CC1)C1CC1` (stereo partly drawn) [Compound 19] the value was less than 6.00.
Next, `CCn1nccc1C(=O)N[C@H](c1nc2ccc(CC3(C)CCNC3=O)cc2[nH]1)C(C1CC1)C1CC1` (stereo partly drawn) [Compound 20]: 6.00 to 7.00.
For `CCn1nccc1C(=O)N[C@H](c1nc2cc(C(C)C3CCNC3=O)ccc2[nH]1)C(C1CC1)C1CC1` (stereo partly drawn) [Compound 21], the negative-log IC50 (pIC50) was 6.00 to 7.00.
Next, `CCn1nccc1C(=O)N[C@H](c1nc2cc(C(C)C3CCNC3=O)ccc2[nH]1)C(C1CC1)C1CC1` (stereo partly drawn) [Compound 22]: less than 6.00; `CCn1nccc1C(=O)N[C@H](c1nc2cc(C(C)C3CCNC3=O)ccc2[nH]1)C(C1CC1)C1CC1` (stereo partly drawn) [Compound 23]: less than 6.00.
Next, `CCn1nccc1C(=O)N[C@H](c1nc2cc(C(C)C3CCNC3=O)ccc2[nH]1)C(C1CC1)C1CC1` (stereo partly drawn) [Compound 24]: less than 6.00; `CCc1nonc1C(=O)N[C@H](c1nc2ccc(C[C@H]3CCNC3=O)cc2[nH]1)C1CCC(F)(F)CC1` [Compound 25]: 6.00 to 7.00.
Next, `CCn1nccc1C(=O)N[C@H](c1nc2cc(C)c(CC3CCNC3=O)cc2[nH]1)C(C1CC1)C1CC1` (stereo partly drawn) [Compound 26]: less than 6.00; `CCn1nccc1C(=O)N[C@H](c1nc2cc(C[C@@H]3CCNC3=O)ccc2[nH]1)C(C1CC1)C1CC1` [Compound 27]: less than 6.00.
As for `CCn1nccc1C(=O)N[C@@H](c1nc2nc(C[C@H]3CCNC3=O)ccc2[nH]1)C1CCC(F)(F)CC1` [Compound 28], the negative-log IC50 (pIC50) was less than 6.00.
With `CCn1nccc1C(=O)N[C@@H](c1nc2nc(CC3CCNC3=O)ccc2[nH]1)C1CCC(F)(F)CC1` (stereo partly drawn) [Compound 29], the negative-log IC50 (pIC50) is less than 6.00.
Next, `CCn1nccc1C(=O)N[C@H](c1nc2nc(CC3CCNC3=O)ccc2[nH]1)C1CCC(F)(F)CC1` (stereo partly drawn) [Compound 30]: less than 6.00; `CCn1nccc1C(=O)N[C@H](c1nc2cc(C[C@@H]3CCNC3=O)cc(F)c2[nH]1)C(C1CC1)C1CC1` [Compound 31]: less than 6.00.
As for `CCn1nccc1C(=O)N[C@H](c1nc2cc(C[C@H]3CCNC3=O)cc(F)c2[nH]1)C(C1CC1)C1CC1` [Compound 32], the pIC50 is 6.00 to 7.00.
For `CCn1nccc1C(=O)N[C@H](c1nc2cc(CC3CC(C(F)(F)F)NC3=O)cc(F)c2[nH]1)C(C1CC1)C1CC1` (stereo partly drawn) [Compound 33] the value was 6.00 to 7.00.
Consider `CCn1nccc1C(=O)N[C@H](c1nc2cc(C[C@H]3C[C@@H](C(F)(F)F)NC3=O)cc(F)c2[nH]1)C(C1CC1)C1CC1` [Compound 34], for which the pIC50 is more than 7.00.
For `CCn1nccc1C(=O)N[C@H](c1nc2ccc(C[C@H]3CCCNC3=O)cc2[nH]1)C(C1CC1)C1CC1` [Compound 35] the value was 6.00 to 7.00.
Next, `CCn1nccc1C(=O)N[C@H](c1nc2ccc(C[C@@H]3CCCNC3=O)c(F)c2[nH]1)C(C1CC1)C1CC1` [Compound 36]: less than 6.00; `CCn1nccc1C(=O)N[C@H](c1nc2c(F)c(C[C@@H]3C[C@@H](C(F)(F)F)NC3=O)ccc2[nH]1)C(C1CC1)C1CC1` [Compound 37]: 6.00 to 7.00.
`CCn1nccc1C(=O)N[C@H](c1nc2c(F)c(C[C@H]3C[C@H](C(F)(F)F)NC3=O)ccc2[nH]1)C(C1CC1)C1CC1` [Compound 38]: the pIC50 was 6.00 to 7.00.
For `CCn1nccc1C(=O)N[C@H](c1nc2c(F)c(CC3CC(C(F)(F)F)NC3=O)ccc2[nH]1)C(C1CC1)C1CC1` (stereo partly drawn) [Compound 39], the pIC50 is less than 6.00.
For `CCn1nccc1C(=O)N[C@H](c1nc2c(F)c(C[C@H]3C[C@@H](C(F)(F)F)NC3=O)ccc2[nH]1)C(C1CC1)C1CC1` [Compound 40] the value was more than 7.00; for `CCn1nccc1C(=O)N[C@H](c1nc2cc(CC3CC(C(F)(F)F)NC3=O)cc(F)c2[nH]1)C(C1CC1)C1CC1` (stereo partly drawn) [Compound 41], 6.00 to 7.00.
Next, `CCn1nccc1C(=O)N[C@H](c1nc2cc(CC3CC(C(F)(F)F)NC3=O)cc(F)c2[nH]1)C(C1CC1)C1CC1` (stereo partly drawn) [Compound 42]: less than 6.00.
On to `CCn1nccc1C(=O)N[C@H](c1nc2cc(CC3CCC(C(F)(F)F)NC3=O)ccc2[nH]1)C(C1CC1)C1CC1` (stereo partly drawn) [Compound 43], for which the pIC50 is 6.00 to 7.00.
Next, `CCn1nccc1C(=O)N[C@H](c1nc2cc(CC3CCC(C(F)(F)F)NC3=O)ccc2[nH]1)C(C1CC1)C1CC1` (stereo partly drawn) [Compound 44]: less than 6.00; `CCn1nccc1C(=O)N[C@H](c1nc2cc(CC3CCC(C(F)(F)F)NC3=O)ccc2[nH]1)C(C1CC1)C1CC1` (stereo partly drawn) [Compound 45]: 6.00 to 7.00; `CCn1nccc1C(=O)N[C@H](c1nc2cc(CC3CCC(C(F)(F)F)NC3=O)ccc2[nH]1)C(C1CC1)C1CC1` (stereo partly drawn) [Compound 46]: less than 6.00.

The values above are taken from patent publication US20260226047A1, “BENZIMIDAZOLE AND AZA-BENZIMIDAZOLE BASED IL-17A MODULATORS AND USES THEREOF” (DICE ALPHA, INC., priority 2023, published 2026).
